According to US20050153870A1, “Medicinal composition for diagnosis, prevention, or therapy of multiple risk factor syndrome” (priority 2002, published 2005):

Tested on: non-insulin dependent type II diabetes patients
Test: Clinical test II
Format: in vivo, human
Settings: for Body weight: week 0: 61.4 ± 10.21, in kg; for Serum neutral fat: week 0: 199.6 ± 88.29; for number of patients, Feeling of weariness Absent: before medication 0 of 25; for number of patients, Large amount of urine excretion Absent: before medication 0 of 30; for number of patients, Feeling of fatigue Absent: before medication 1 of 15; for number of patients, Throat dry Absent: before medication 1 of 30; for number of patients, Pain in the calf of leg Absent: before medication 4 of 16; for number of patients, Pain in the calf of leg Present: before medication 12 of 16; for number of patients, Feeling of fatigue Present: before medication 14 of 15; for number of patients, Feeling of weariness Present: before medication 25 of 25; for number of patients, Throat dry Present: before medication 29 of 30; for number of patients, Large amount of urine excretion Present: before medication 30 of 30
Procedure: On the other hand, Clinical test II was performed in a group of 79 participants from non-insulin dependent diabetic patients.
79 non-insulin dependent type II diabetes patients whose blood sugar is well-controlled under dietary therapy (all were mongoloid Japanese) participated in Clinical test II. They were forbidden to use sulfonyl urea and biguanide agent which is a therapeutic agent for type II diabetes, and a fibrate series medicament, nicotinic acid, and probucol which is a serum fat decreasing agent; however use of an antihypertensive agent is not particularly prohibited. They participated on a voluntary basis after they signed informed consent for clinical test participation, which was proposed by a medical institution based on the Helsinki declaration. The participants consisted of 26 males and 53 females. An average age at the sign-up time was 58±9.9 years old (average value±standard deviation), ranging from 37 to 81 years old. The body weight of patients was divided by standard body weight obtained from the standard body-weight table issued by Meiji life Insurance Company. This index was 1.24±0.154 (average value±standard deviation) at the sign-up time, meaning that there are many obese persons. After 12 weeks, the body weight index decreased to 1.18±0.137(average value±standard deviation).
The number of patients having normal blood pressure was 58 (of them, 31 patients were taking an antihypertensive agent).

[1] = 30 cases with diabetic complications

COc1c(Cl)c(C)c(C=O)c(O)c1C/C=C(C)/C=C/[C@@]1(C)[C@H](C)CCC(=O)[C@@H]1C [4-O-methylascochlorin]
Fasting blood sugar, change vs week 0 (6 mg/kg, week 4): −9.1% (n = 69)
Serum neutral fat, change vs week 0 (6 mg/kg, week 4): −15.2% (n = 62)
Total serum cholesterol, change vs week 0 (6 mg/kg, week 4): −14.3% (n = 60)
Body weight (6 mg/kg, week 4): 61.4 ± 9.63
Fasting blood sugar (6 mg/kg, week 4, week 0: 162 ± 50.68): 146.1 ± 41.06
Serum neutral fat (6 mg/kg, week 4): 173.5 ± 71.25
Total serum cholesterol (6 mg/kg, week 4, week 0: 265.3 ± 69.75): 238.7 ± 51.33
Fasting blood sugar, change vs week 0 (6 mg/kg, week 8): −8.9% (n = 74)
Serum neutral fat, change vs week 0 (6 mg/kg, week 8): −22.7% (n = 59)
Total serum cholesterol, change vs week 0 (6 mg/kg, week 8): −18.6% (n = 61)
Body weight (6 mg/kg, week 8): 60.7 ± 8.88
Fasting blood sugar (6 mg/kg, week 8, week 0: 162 ± 50.68): 147.9 ± 46.94
Serum neutral fat (6 mg/kg, week 8): 162.3 ± 65.89
Total serum cholesterol (6 mg/kg, week 8, week 0: 265.3 ± 69.75): 228.0 ± 43.65
Fasting blood sugar, change vs week 0 (6 mg/kg, week 12): −10.8% (n = 71)
Serum neutral fat, change vs week 0 (6 mg/kg, week 12): −21.8% (n = 69)
Total serum cholesterol, change vs week 0 (6 mg/kg, week 12): −19.7% (n = 69)
Body weight (6 mg/kg, week 12): 60.3 ± 9.07
Fasting blood sugar (6 mg/kg, week 12, week 0: 162 ± 50.68): 142.2 ± 44.03
Serum neutral fat (6 mg/kg, week 12): 158.8 ± 73.28
Total serum cholesterol (6 mg/kg, week 12, week 0: 265.3 ± 69.75): 220.04 ± 46.17
number of patients, Feeling of weariness Absent (4th week): 10
number of patients, Large amount of urine excretion Absent (4th week): 16
number of patients, Feeling of fatigue Absent (4th week): 5
number of patients, Throat dry Absent (4th week): 16
number of patients, Pain in the calf of leg Absent (4th week): 9
number of patients, Pain in the calf of leg Present (4th week): 7
number of patients, Feeling of fatigue Present (4th week): 10
number of patients, Feeling of weariness Present (4th week): 15
number of patients, Throat dry Present (4th week): 14
number of patients, Large amount of urine excretion Present (4th week): 14
symptoms associated with diabetic nephropathy such as throat dry and excessive urination (5 excluded cases of type II diabetic patients having 10-20 year's disease history): disappeared from all patients
number of patients, Feeling of weariness Absent (8th week): 19
number of patients, Large amount of urine excretion Absent (8th week): 22
number of patients, Feeling of fatigue Absent (8th week): 13
number of patients, Throat dry Absent (8th week): 23
number of patients, Pain in the calf of leg Absent (8th week): 10
number of patients, Pain in the calf of leg Present (8th week): 6
number of patients, Feeling of fatigue Present (8th week): 2
number of patients, Feeling of weariness Present (8th week): 6
number of patients, Throat dry Present (8th week): 7
number of patients, Large amount of urine excretion Present (8th week): 8
decrease of body weight compared to before medication (12-week medication): 0.9 kg
number of patients, Feeling of weariness Absent (12th week): 24
number of patients, Large amount of urine excretion Absent (12th week): 29
number of patients, Feeling of fatigue Absent (12th week): 15
number of patients, Throat dry Absent (12th week): 28
number of patients, Pain in the calf of leg Absent (12th week): 14
number of patients, Pain in the calf of leg Present (12th week): 2
number of patients, Feeling of fatigue Present (12th week): 0
number of patients, Feeling of weariness Present (12th week): 1
number of patients, Throat dry Present (12th week): 2
number of patients, Large amount of urine excretion Present (12th week): 1
feeling of fatigue, feeling of weariness, pain in the calf of leg (diabetic neuropathy) [1]: improved these symptoms with the passage of time
throat dry and excessive urination (symptoms of diabetic nephropathy) [1]: significantly improved
abnormality in the serum biological test, hematocyte test, and urine test (79 patients, 12-week medication): did not bring any abnormality
side effect (79 patients, 12-week medication, 6 mg/kg, transient, disappeared within a week): Two cases of light eruption
Fasting blood sugar, change vs before medication (High blood sugar group FBS > 130 mg/dl, 4th week): −11.3% (n = 45)
Fasting blood sugar (High blood sugar group FBS > 130 mg/dl, 4th week, before medication 187.6 ± 40.39): 167.3 ± 34.50 mg/dL
Fasting blood sugar, change vs before medication (High blood sugar group FBS > 130 mg/dl, 8th week): −11.8% (n = 49)
Fasting blood sugar (High blood sugar group FBS > 130 mg/dl, 8th week, before medication 187.6 ± 40.39): 167.8 ± 44.82 mg/dL
Fasting blood sugar, change vs before medication (High blood sugar group FBS > 130 mg/dl, 12th week): −13.8% (n = 46)
Fasting blood sugar (High blood sugar group FBS > 130 mg/dl, 12th week, before medication 187.6 ± 40.39): 161.7 ± 41.79 mg/dL
Total serum cholesterol, change vs before medication (High cholesterol group 300-200 mg/dl, 4th week): −11.8% (n = 26)
Total serum cholesterol (High cholesterol group 300-200 mg/dl, 4th week, before medication 267.6 ± 23.66): 240.8 ± 38.92 mg/dL
Total serum cholesterol, change vs before medication (High cholesterol group 300-200 mg/dl, 8th week): −13.9% (n = 27)
Total serum cholesterol (High cholesterol group 300-200 mg/dl, 8th week, before medication 267.6 ± 23.66): 232.4 ± 36.01 mg/dL
Total serum cholesterol, change vs before medication (High cholesterol group 300-200 mg/dl, 12th week): −17.0% (n = 30)
Total serum cholesterol (High cholesterol group 300-200 mg/dl, 12th week, before medication 267.6 ± 23.66): 227.2 ± 45.36 mg/dL
Fasting blood sugar, change vs before medication (Normal blood sugar group FBS < 130 mg/dl, 4th week): ns (n = 24)
Fasting blood sugar (Normal blood sugar group FBS < 130 mg/dl, 4th week, before medication 108.8 ± 15.10): 106.4 ± 13.48 mg/dL
Fasting blood sugar, change vs before medication (Normal blood sugar group FBS < 130 mg/dl, 8th week): ns (n = 25)
